From patent publication US20230210795A1, “3-HYDROXYBUTYRIC-ACID-CONTAINING OIL AND FAT COMPOSITION” (OSAKA GAS CO., LTD., priority 2020, published 2023)

Assay: Deliquescence test: 1 g of composition left uncovered in a petri dish at 25° C. for 1 week, appearance and weight change evaluated
Format: physicochemical
Parameters: key: High fluidity and silky smoothness.; Δ: Slightly moist but highly fluid powder.; x: Agglomeration or deliquescence occurred
Details: for Appearance after 1 week / Appearance after 1 day: left uncovered at 25° C.
Protocol: R-3HB crystals or R-3HB salts (3HB-Na: sodium salt, 3HB-K: potassium salt) and oil and fat particles were weighed in the proportions shown in Table 2 below. Each mixture thereof was milled for 3 seconds five times in a mill mixer (IJM-M800-W, produced by Iris Ohyama Inc.). 1 g of each of the 3HB-containing compositions obtained in the Examples and Comparative Examples was weighed in petri dishes and left uncovered in a room adjusted to 25° C. for 1 week. The appearance and weight change of each composition was then evaluated. As comparative examples, combinations of commonly used silicon dioxide or calcium silicate and fat and/or oil were evaluated. […] The evaluation was made according to the following criteria.
o: High fluidity and silky smoothness. Δ: Slightly moist but highly fluid powder. x: Agglomeration or deliquescence occurred.

Row | Structure (SMILES) | Appearance immediately after milling | Appearance after 1 week | Appearance after 1 day
1 | CC(O)CC(=O)O (stereo not drawn) [Comp. Ex. 1, 3-Hydroxybutyric acid] | Δ | x (Partial | x (Partial
2 | CC(O)CC(=O)[O-].[K+] (stereo not drawn) [Comp. Ex. 2] | Δ | x | x
3 | CC(O)CC(=O)[O-].[Na+] (stereo not drawn) [Comp. Ex. 3] | ∘ | x | x
